Values after ≈ are worked out from the molar mass of the structure shown. Non-standard residues stand in square brackets, D forms with d. Residues, ends and D or L forms follow the SMILES beside them. No end group written: not given here. Hyp = O=C(O)[C@@H]1C[C@@H](O)CN1
Tests used:
[1] = target: T1, DPP-4 (derived from porcine kidney) (Sus scrofa, UniProt P22411); assay: DPP-4 inhibition rate / IC50 value measurement (Gly-Pro-MCA fluorescence); format: biochemical; details: individual oligopeptides
T1 construct: purchased Sigma; host or cells: porcine kidney (tissue-derived enzyme)
T1 sequence (P22411 whole entry): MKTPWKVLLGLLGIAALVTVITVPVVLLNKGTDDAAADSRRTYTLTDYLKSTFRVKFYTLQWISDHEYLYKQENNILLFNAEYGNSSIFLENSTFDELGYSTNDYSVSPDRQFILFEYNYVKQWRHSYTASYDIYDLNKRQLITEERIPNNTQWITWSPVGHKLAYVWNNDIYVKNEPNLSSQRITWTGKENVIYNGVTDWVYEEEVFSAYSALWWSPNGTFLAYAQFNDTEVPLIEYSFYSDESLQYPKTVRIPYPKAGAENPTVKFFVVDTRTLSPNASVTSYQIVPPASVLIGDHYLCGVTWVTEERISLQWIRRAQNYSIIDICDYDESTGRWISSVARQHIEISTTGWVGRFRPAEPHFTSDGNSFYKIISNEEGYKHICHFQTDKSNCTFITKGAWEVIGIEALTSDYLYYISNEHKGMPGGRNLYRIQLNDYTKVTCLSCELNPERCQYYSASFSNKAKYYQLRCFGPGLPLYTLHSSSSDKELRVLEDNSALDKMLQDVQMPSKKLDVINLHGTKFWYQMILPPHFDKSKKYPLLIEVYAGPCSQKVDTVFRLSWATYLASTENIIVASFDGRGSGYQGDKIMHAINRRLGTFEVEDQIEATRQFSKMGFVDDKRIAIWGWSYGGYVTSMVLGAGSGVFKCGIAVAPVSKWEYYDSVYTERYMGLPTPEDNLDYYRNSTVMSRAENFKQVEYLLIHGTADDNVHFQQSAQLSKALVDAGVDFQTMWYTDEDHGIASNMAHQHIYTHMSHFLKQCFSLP
Protocol: Thirty-five μl of sample solution obtained by dissolving a sample in 50 mM tris-hydrochloric acid buffer (pH 7.5) and 15 μl of DPP-4 (manufactured by Sigma, derived from porcine kidney; 8.6 mU/ml) that was dissolved in 50 mM tris-hydrochloric acid buffer (pH 7.5) were mixed in a microtiter plate well (manufactured by NUNC, trade name “237015”) and incubated at 37° C. for 10 minutes.
To this, 50 μl of substrate solution (obtained by dissolving glycylproline-4-methylcoumarin-7-amide (Gly-Pro-MCA) in 50 mM tris-hydrochloric acid buffer (pH 7.5) at 10 μM) kept at 37° C. in advance was added and mixed to react at 37° C. for 20 minutes.
The fluorescence intensity of 7-amino-4-methylcoumarin (AMC) released by DPP-4 was measured with time using a microplate reader-type fluorescence detector (manufactured by Corona Electric Co., Ltd., trade name “SH-9000”). As for the wavelength used for the measurement, the excitation wavelength was 380 nm and the measurement wavelength was 460 nm Instead of sample, 50 mM tris-hydrochloric acid buffer (pH 7.5) in an identical amount was employed as a control and the fluorescence intensity thereof was measured.
The activity of DPP-4 was expressed in an average gradient of change in the amount of fluorescence intensity during a reaction time. As for a DPP-4 inhibition rate, difference was calculated by, with the control as 100%, subtracting the activity of sample from the above-mentioned control to use as the inhibition rate (%).
According to the above method of measuring the DPP-4 inhibition rate, a 50% inhibitory concentration (IC50 value) of the DPP-4 activity in terms of one ml of reaction system was calculated by using the inhibition rates obtained by changing the concentration of sample.

[2] = Glucose tolerance test in mice, blood glucose level; format: in vivo, C57BL/6J male mice; details: 3 mg/kg oral one hour before glucose; 15 minutes after the administration of glucose
Protocol: (1) Twenty-five C57BL/6J male mice at an age of eight weeks (Charles River Laboratories Japan) were subjected to habituation breeding for one week. For seven days prior to a glucose tolerance test, each mouse was given 0.25 ml of distilled water to acclimate to oral administration.
(2) On the day before the glucose tolerance test, the mouse was fasted except for water for 18 hours starting at 16 o'clock. […] The five groups consist of a positive control group, collagen peptide composition administered groups (400 mg/kg, 1000 mg/kg, and 2000 mg/kg), and a negative control group.
(i) The positive control group was orally administered sitagliptin (manufactured by MSD, Januvia) at 3 mg/kg one hour before administration of 20 w/v % glucose aqueous solution.
(ii) The collagen peptide composition administered groups were orally administered the above peptide powder dissolved in distilled water to be a dose of 400 mg/kg, 1000 mg/kg, or 2000 mg/kg 15 minutes before the administration of glucose.
(iii) The negative control group was orally administered 20 ml/kg of distilled water 15 minutes before the administration of glucose.
(3) The glucose was administered. […]
(4) After the administration of glucose, the blood was drawn from the tail at 15, 30, 60, and 120 minutes; and the blood glucose level was measured using a simple blood glucose measuring instrument (manufactured by Arkray Factory, GT-164). […]

Row | Compound | IC50 value [1] [µg/mL] | blood glucose level [2] [mg/dL]
1 | C[C@H](N)C(=O)N1C[C@H](O)C[C@H]1C(=O)NCC(=O)O [AlaHypGly] (H-Ala-[Hyp]-Gly-OH; N-terminus and C-terminus assumed) | 2450 (≈ 9450 µM) | –
2 | CC[C@H](C)[C@H](N)C(=O)N1C[C@H](O)C[C@H]1C(=O)NCC(=O)O [IleHypGly] (H-Ile-[Hyp]-Gly-OH; N-terminus and C-terminus assumed) | 150 (≈ 498 µM) | –
3 | CC(C)C[C@H](N)C(=O)N1C[C@H](O)C[C@H]1C(=O)NCC(=O)N1CCC[C@H]1C(=O)N[C@@H](C)C(=O)O [LeuHypGlyProAla] (H-L[Hyp]GPA-OH; N-terminus and C-terminus assumed) | 390 (≈ 831 µM) | –
4 | CC(C)C[C@H](N)C(=O)N1C[C@H](O)C[C@H]1C(=O)NCC(=O)O [LeuHypGly] (H-Leu-[Hyp]-Gly-OH; N-terminus and C-terminus assumed) | 39 (≈ 129 µM) | –
5 | N[C@@H](CC(=O)N1CCn2c(nnc2C(F)(F)F)C1)Cc1cc(F)c(F)cc1F [sitagliptin] | – | 220
6 | GPIGPV [GlyProIleGlyProVal] | 5 | –

— patent US9486491B2, “Collagen peptide composition production method, DPP-4 inhibitor, and antihyperglycemic agent” (Nippi, Incorporated, priority 2012, dated 2016)
